The values that follow come from patent US8012973B2, “Compounds for the treatment of auricular fibrillation” (Proyecto de Biomedicina Cima S.L., priority 2005, dated 2011).

Entries after “also recorded” stand apart in the source; their conditions may differ.

Test [1] relates to isolated human atrial myocytes. Put plainly: Patch-clamp recording of spontaneous Na-Ca exchange current (INCX) associated with calcium waves, membrane potential clamped at -80 mV. The format is cell-based. The note with it: for basal calcium wave frequency measured by patch clamp technique: cells from atrial fibrillation patients with elevated basal SR calcium release, n=7, both antagonists pooled (FIG. 3B right); for reversal of the specific effect of CGS 21680 on spontaneous SR calcium release: antagonist concentration not stated at this place. As for the experimental part:
(§1) Myocytes were isolated from human atrial tissue samples as previously described (cf. L. Hove-Madsen et al., “Atrial fibrillation is associated with increased spontaneous calcium release from the sarcoplasmic reticulum in human atrial myocytes”, Circulation 2004, vol. 110, pp. 1358-63). Briefly, the samples were rinsed, cut into small pieces in a calcium free solution containing 30 mM butanedione monoxime (BDM), and incubated at 35° C. in a Ca^2+ free solution containing 0.5 mg/ml collagenase (Worthington type 2, 318 u/mg) and 0.5 mg/ml proteinase (Sigma type XXIV, 11 u/mg solid). After 45 minutes, the tissue was removed from the enzyme solution and cells were disgregated in Ca^2+-free solution with a Pasteur pipette. The remaining tissue was digested for 3×15 minutes in a fresh calcium free solution containing 0.4 mg/ml collagenase. […] Only elongated cells with clear cross striations and without granulation were used for experiments.
The transient inward Na—Ca exchange current associated with calcium waves was recorded in the perforated patch configuration using a software controlled patch-clamp amplifier (EPC 10, HEKA, Germany). The pipette resistance was 1.5-4 MΩ. Experiments were carried out at room temperature and began when the access resistance was stable and had decreased to less than 5 times the pipette resistance. The extracellular solution contained (in mM): NaCl 127, tetraethyl ammonium (TEA) 5, HEPES 10, NaHCO3 4, NaH2PO4 0.33, glucose 10, pyruvic acid 5, CaCl2 2, MgCl2 1.8, (pH=7.4). The pipette solution contained (in mM): aspartic acid 109, CsCl 47, Mg2ATP 3, MgCl2 1, Na2phosphocreatine 5, Li2GTP 0.42, HEPES 10 and 250 μg/ml amphotericin B, (pH=7.2). The A2A receptor agonist […], the antagonists ZM 241385 and SCH 58261, and the protein kinase A inhibitor H-89 were all dissolved in DMSO and kept as 10 mM stock solutions. The caffeine releasable SR calcium content was measured by transiently exposing cells to 10 mM caffeine. The time integral of the resulting Na—Ca exchange current was converted to pmoles […] of calcium released from the SR assuming a stoichiometry of 3Na^+:1Ca^2+ for the Na—Ca exchanger.
Electrophysiological and confocal calcium imaging experiments were carried out without knowledge about the clinical data of the patients. The Ca^2+ sparks and Ca^2+ waves recorded in cells from the same patient were averaged. Unless otherwise stated, average values from each patient were used for statistical analysis and expressed as mean±S.E.M. Data sets were tested for normality. Student's t-test was used to assess significant differences when testing a specific effect. ANOVA was used for comparison of multiple effects and Student-Newman-Keuls post test was used to evaluate the significance of specific effects.
(Patch clamp records ionic current or voltage across a cell membrane.)

Test [2] has as its system isolated human atrial myocytes. Put plainly: Spontaneous SR calcium release (calcium sparks and waves), confocal calcium imaging of fluo-3 loaded cells. The format is cell-based. Particulars: for basal calcium wave frequency measured by confocal microscopy: 50 nM, cells from atrial fibrillation patients with elevated basal SR calcium release, n=6, both antagonists pooled (FIG. 3B left). The procedure:
as §1
Calcium sparks and calcium waves were detected in fluo-3 loaded cells using a laser-scanning confocal microscope (Leica TCS SP2 AOBS, Germany). […] Fluorescence emission was collected between 500 and 650 nm with the excitation at 488 nm attenuated to 1-5%. Calcium sparks and calcium waves were measured at resting conditions during 2×10.24 s, at a scan rate of 1 kHz. Calcium sparks were detected as an increase in the signal mass of a 3 μm section through the center of a calcium spark, without any detectable increase in an adjacent 3 μm section. An increase in the signal mass in two or more adjacent 3 μm sections were counted as calcium waves. The amplitude of each calcium spark and its half-life were determined from an exponential fit of the decaying phase of the calcium spark transient. The calcium spark frequency was determined for each cell and normalized to the scanned cell length.
Electrophysiological and confocal calcium imaging experiments were carried out without knowledge about the clinical data of the patients. The Ca^2+ sparks and Ca^2+ waves recorded in cells from the same patient were averaged. […]

Consider `O=S(=O)(NCCNC/C=C/c1ccc(Br)cc1)c1cccc2cnccc12` [H-89], for which the “effect on the stimulatory effect of 200 nM CGS 21680 (wave frequency)” value in test [1] (10 μM H-89, myocytes from 5 patients with atrial fibrillation (FIG. 2E), p=0.002 CGS vs. CGS+H-89) is “abolished the stimulatory effect; also recorded: eliminated”. Besides, the “spontaneous calcium release / calcium wave frequency relative to baseline before CGS 21680” value in test [1] (10 μM H-89 with 200 nM CGS 21680, p=0.05 vs. control (FIG. 2E)) is recorded as “reduced spontaneous calcium release to a significantly lower level than the baseline; also recorded: reduces the calcium wave frequency below baseline level”.
For `CCNC(=O)[C@H]1O[C@@H](n2cnc3c(N)nc(NCCc4ccc(CCC(=O)O)cc4)nc32)[C@H](O)[C@@H]1O` [CGS 21680], the “number of calcium waves” value in test [2] (myocytes from patients with atrial fibrillation, preincubation with 200 nM) was “increased the number of calcium waves”. In test [1] (200 nM, -80 mV, atrial fibrillation patients (FIG. 2A, B, D)), the “number of spontaneous calcium waves measured as the Na-Ca exchange current (INCX)” value was “reversibly increased the number of spontaneous calcium waves”.
For the molecule `Nc1nc2c(cnn2CCc2ccccc2)c2nc(-c3ccco3)nn12` [SCH 58261], the “basal calcium wave frequency measured by confocal microscopy” value in test [2] is listed as “significantly reduced the calcium wave frequency”. Further, in test [1] (50 nM), the “basal calcium wave frequency measured by patch clamp technique” value was “significantly reduced the calcium wave frequency”. For the same molecule, in test [1] (50 nM, samples of patients with atrial fibrillation, -80 mV (FIG. 3A)), the “spontaneous INCX frequency (basal)” value is listed as “reversible reduction”. Also, the “reversal of the specific effect of CGS 21680 on spontaneous SR calcium release” value in test [1] is given as “reversed”.
Consider `Nc1nc(NCCc2ccc(O)cc2)nc2nc(-c3ccco3)nn12` [ZM 241385], for which, in test [2], the “basal calcium wave frequency measured by confocal microscopy” value is reported as “significantly reduced the calcium wave frequency”. Further, the “basal calcium wave frequency measured by patch clamp technique” value in test [1] (50 nM) was “significantly reduced the calcium wave frequency”. For the same molecule, the “reversal of the stimulatory effect of 200 nM CGS 21680 on spontaneous INCX” value in test [1] (antagonist 1 μM, -80 mV (FIG. 2C)) is reported as “able to revert the stimulatory effect”. Moreover, in test [1], the “reversal of the specific effect of CGS 21680 on spontaneous SR calcium release” value is given as “reversed”.
